Assay results reported in paper PMC4551558, “Differential inhibition of PDKs by phenylbutyrate and enhancement of pyruvate dehydrogenase complex activity by combination with dichloroacetate” (Journal of Inherited Metabolic Disease, 2015).

How the values were obtained:
[1] = target: PDK3 (Homo sapiens, UniProt Q15120); experiment: […]-phosphate incorporation into recombinant E1alpha by recombinant human PDK3; Lineweaver-Burk kinetics; format: biochemical; settings: read-out: Ki (phenylbutyrate)
[2] = target: PDK1 (Homo sapiens, UniProt Q15118); experiment: […]-phosphate incorporation into recombinant E1alpha by recombinant human PDK1; Lineweaver-Burk kinetics; format: biochemical; settings: read-out: Ki (phenylbutyrate)
Chain of PDK1 (Q15118 29-436): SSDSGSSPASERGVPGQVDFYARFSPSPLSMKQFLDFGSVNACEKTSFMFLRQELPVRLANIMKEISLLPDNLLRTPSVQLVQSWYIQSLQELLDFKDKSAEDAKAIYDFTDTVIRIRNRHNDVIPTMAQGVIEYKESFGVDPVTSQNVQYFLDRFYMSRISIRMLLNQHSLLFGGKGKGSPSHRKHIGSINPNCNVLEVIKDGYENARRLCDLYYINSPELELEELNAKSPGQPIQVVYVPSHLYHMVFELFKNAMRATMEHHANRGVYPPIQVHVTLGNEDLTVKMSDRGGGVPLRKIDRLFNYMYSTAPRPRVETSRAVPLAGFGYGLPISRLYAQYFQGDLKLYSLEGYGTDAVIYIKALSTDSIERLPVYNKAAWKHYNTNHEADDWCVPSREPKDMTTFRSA
Chain of PDK1 (P08559 30-390 partner): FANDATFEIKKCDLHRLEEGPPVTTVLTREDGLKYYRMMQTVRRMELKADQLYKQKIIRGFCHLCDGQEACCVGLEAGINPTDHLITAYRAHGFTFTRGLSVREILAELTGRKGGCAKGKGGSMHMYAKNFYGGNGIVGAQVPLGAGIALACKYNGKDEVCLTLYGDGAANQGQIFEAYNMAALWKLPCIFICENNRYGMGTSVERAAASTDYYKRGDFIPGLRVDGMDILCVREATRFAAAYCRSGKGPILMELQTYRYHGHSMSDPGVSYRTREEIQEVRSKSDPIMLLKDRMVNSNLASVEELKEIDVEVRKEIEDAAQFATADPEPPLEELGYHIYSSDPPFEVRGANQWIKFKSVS

Chain of PDK3 (Q15120 whole entry): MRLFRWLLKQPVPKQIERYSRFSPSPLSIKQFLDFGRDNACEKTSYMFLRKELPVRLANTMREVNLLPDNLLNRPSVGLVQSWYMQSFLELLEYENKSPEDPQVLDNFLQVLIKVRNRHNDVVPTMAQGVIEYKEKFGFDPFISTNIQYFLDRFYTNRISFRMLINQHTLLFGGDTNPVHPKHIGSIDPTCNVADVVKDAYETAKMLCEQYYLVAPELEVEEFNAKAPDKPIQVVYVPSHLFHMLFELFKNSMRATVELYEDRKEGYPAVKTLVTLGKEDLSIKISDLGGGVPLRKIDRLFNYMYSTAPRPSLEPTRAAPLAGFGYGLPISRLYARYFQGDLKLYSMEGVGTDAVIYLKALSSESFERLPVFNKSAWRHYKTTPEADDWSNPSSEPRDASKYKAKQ
Chain of PDK3 (P08559 30-390 partner): as the sequence (P08559 30-390 partner) above

Structure (SMILES): O=C(O)CCCc1ccccc1 [PB, phenylbutyrate]
- Ki [1]: 980 ± 190 µM
- Ki [2]: 7.1 ± 0.15 mM
